# From paper PMC9034499, “RORγt agonist enhances anti-PD-1 therapy by promoting monocyte-derived dendritic cells through CXCL10 in cancers” (Journal of Experimental & Clinical Cancer Research : CR, 2022)
# pEC50: −log10 of the molar value.
# Assays:
# [1] = test system: Tc17 cells (CD8+ T cells); test: Murine Tc17 differentiation, flow cytometry; format: cell-based, mouse; conditions: Tc17, intracellular staining, same concentration
# Description: (§1) CD4^+ CD25^−CD62L^high cells were purified from C57BL/6 splenocytes using an EasySep Mouse Naïve CD4^+ T cell isolation kit from STEMCELL Technologies (Vancouver, Canada), and they were differentiated into Th17 cells (TGF-β, 2 ng/ml; IL-6, 20 ng/ml; Anti-IFN-γ, 10 μg/ml; Anti-IL-4, 10 μg/ml, BioLegend, San Diego, CA) in the presence of plate-bound anti-CD3 (5 μg/ml, BioLegend, San Diego, CA) and anti-CD28 (2 μg/ml, BioLegend, San Diego, CA). The cells were harvested and processed for cytokine analysis at the RNA or protein level using real-time qPCR, flow cytometry, and ELISA on day five. Alternatively, splenocytes from OT-I mice were activated using OVA-derived peptides SIINFEKL (50 ng/ml, Sangon Biotech, Shanghai, China) and polarized to Tc17 cells using cytokine TGF-β (2 ng/ml, BioLegend, San Diego, CA) and IL-6 (20 ng/ml, BioLegend, San Diego, CA) for four or five days.
# (§2) Cells were stained with fluorochrome-labeled anti-mouse Ab such as CD45, CD3, CD4, CD8, Foxp3, IFN-γ, IL-17A, CD11b, CD11c, pAKT, pSTAT3, CCR6, or MHCII. […] Cells were acquired using the FACS Aria II machine and analyzed using FlowJo software.
# [2] = test system: Th17 cells (CD4+ T cells); test: Murine Th17 differentiation, flow cytometry; format: cell-based, mouse; conditions: Th17, intracellular staining, same concentration
# Description: as §1, §2
# mouse Th17 cells = test: IL-17A secretion by Th17 cells (ELISA); format: cell-based; conditions: ELISA of supernatant, 0 to 160 nM
# Description: as §1, with “Alternatively, splenocytes from OT-I mice were activated using OVA-derived peptides SIINFEKL (50 ng/ml, Sangon Biotech, Shanghai, China) and polarized to Tc17 cells using cytokine TGF-β (2 ng/ml, BioLegend, San Diego, CA) and IL-6 (20 ng/ml, BioLegend, San Diego, CA) for four or five days.” left out
# The intracellular cytokines by TILs or in vitro differentiated T helper cells were quantified after restimulation with PMA plus ionomycin in the presence of GolgiStop for 6 h. The total RNA was isolated using the improved TRizol-based (Sigma, Darmstadt, Germany) method for qPCR analysis, and the mRNA expression was analyzed using a StepOnePlus (Life Technologies, Carlsbad, USA) real-time PCR instrument using housekeeping gene β-actin and Gapdh internal standards. qPCR was performed using A Power SYBR Green PCR Master Mix (Accurate Biology, Hunan, China) and two-cycle amplification for 40 cycles followed by the melting curve. […]
# RORα = molecular target: T1, RORα (Homo sapiens, UniProt P35398); test: RORα Gal4 reporter gene assay; format: cell-based
# T1 construct: expressed in transfected cells
# T1 sequence (P35398 1-523): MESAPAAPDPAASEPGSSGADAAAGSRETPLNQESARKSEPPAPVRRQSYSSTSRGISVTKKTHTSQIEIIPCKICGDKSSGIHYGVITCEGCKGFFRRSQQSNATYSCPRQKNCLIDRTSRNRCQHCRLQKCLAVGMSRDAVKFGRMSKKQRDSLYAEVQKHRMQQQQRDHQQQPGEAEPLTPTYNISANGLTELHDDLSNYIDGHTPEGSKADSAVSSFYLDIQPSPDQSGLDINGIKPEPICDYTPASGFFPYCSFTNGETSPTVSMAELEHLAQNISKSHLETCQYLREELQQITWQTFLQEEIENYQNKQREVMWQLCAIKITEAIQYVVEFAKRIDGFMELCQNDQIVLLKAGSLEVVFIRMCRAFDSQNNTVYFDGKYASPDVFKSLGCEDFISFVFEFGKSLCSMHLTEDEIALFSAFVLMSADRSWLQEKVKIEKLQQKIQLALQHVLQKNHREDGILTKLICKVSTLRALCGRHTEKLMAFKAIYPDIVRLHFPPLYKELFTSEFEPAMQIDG
smiles,measurement,setting,value
CCS(=O)(=O)c1ccc(CC(=O)Nc2ccc(-c3ccc(CC(C)C)c(C#N)c3)c(C(F)(F)F)c2)cc1 [8-074],percentage of CD8+ T cells that express IL-17A,[1],50.4%
same,percentage of CD4+ T cells that express IL-17A,[2],24.0%
same,pEC50,mouse Th17 cells,7.64
same,pEC50,RORα,< 5.00
